Like-named read-outs stand apart in the source and are kept apart here. Bridge positions count the residues as written; N and C are the ends. Square brackets hold non-standard residues; d marks the D form. Ends that are not written are not given here. I, II: the chains in the order shown. Trp(6-Br) = N[C@@H](Cc1c[nH]c2cc(Br)ccc12)C(=O)O
Legend:
Format in all cases: cell-based
[1] = tested on: Escherichia coli #1 (ATCC 25922)
From the text: (§1) Organic phase extract, SPE eluates and HPLC-fractions were screened for antibacterial activity against two strains of Gram-positive and two strains of Gram-negative bacteria; Corynebacterium glutamicum (ATCC 13032), Staphylococcus aureus (ATCC 9144), Pseudomonas aeruginosa #1 (ATCC 27853) and Escherichia coli #1 (ATCC 25922). For extended antimicrobial bioactivity screening, the following bacterial strains were used, three strains of Gram-positive bacteria; S. epidermidis #1 (5179-R1) kindly provided by Holger Rohde, S. epidermidis #2, RP62A (ATCC 35984) and Bacillus subtilis (ATCC 23857) in addition to the Gram-negative P. aeruginosa #2, PA 01 (ATCC 15692, DSM 19880) and E. coli #2, NR 698 (MC4100/ptD4213).
(§2) Cultures stored at -80°C were smeared onto agar plates and cultured for 24 h at 35°C. One colony of each bacterial strain was transferred to 5 ml liquid Müller-Hinton (MH, Difco, Lawrence, KS, USA) medium in a glass tube and left shaking at room temperature overnight at 600 rpm. The cultures of actively growing bacteria (20 μl) were further inoculated in 5 ml MH medium and left shaking for 2 h at room temperature. The antibacterial assays were performed as previously described by. Briefly, the bacterial cultures were diluted with medium to 1.3–1.5 × 10^4 bacteria/ml final concentrations and an aliquot of 50 μl was added to each well in 96-well Nunclon^TM microtiter plates (Nagle Nunc Int., Denmark) preloaded with 50 μl test sample solutions, i.e. extracts, eluates or peptides.
(§3) The test plates were incubated for 24 h at 35°C with optical density (OD595) recorded every hour using an Envision 2103 multilabel reader, controlled by the Wallac Envision manager (PerkinElmer, CT, USA). Antibacterial activity was defined as a sample showing >90% inhibition (as measured by optical density) compared to the negative (growth) controls, consisting of bacteria and water. Oxytetracycline (20 μM) served as a positive (inhibition) control. The minimum inhibitory concentration (MIC) was defined as the lowest concentration of a sample displaying >90% inhibition.
(§4) ACN-phases and SPE eluates were tested with two-fold serial dilutions ranging from 5.0 to 0.005 mg/ml (5.0, 2.5, 1.25, 0.63, 0.31, 0.16, 0.08, 0.04, 0.02, 0.01, 0.005 mg/ml) whereas HPLC-fractions were tested undiluted for antibacterial activity. Pure, native peptides and synthetic peptides (described in section 2.11) were tested for antimicrobial activity in concentrations ranging from 100 to 0.1 μM in two-fold serial dilutions (100, 50, 25, 12.5, 6.25, 3.13, 1.56, 0.78, 0.39, 0.20, 0.10 μM). Antimicrobial assays involving natural peptides (i.e. fractionated natural material) were run only once due to limited quantities, whereas all other assays were run in triplicates.

[2] = tested on: Corynebacterium glutamicum (ATCC 13032)
From the text: as §1, §2, §3, §4

[3] = tested on: Pseudomonas aeruginosa #1 (ATCC 27853)
From the text: as §1, §2, §3, §4

[4] = tested on: Staphylococcus aureus (ATCC 9144)
From the text: as §1, §2, §3, §4

human red blood cells = test: Haemolytic activity assay
Procedure: Synthesised peptide analogues of EeCentrocin 1 and 2 were screened for eukaryotic cell-toxicity with a haemolytic activity assay using human red blood cells as described previously. The assay was performed on 96-well U-shaped microtiter plates (Nagle Nunc) with 50 μl peptide sample, 40 μl phosphate-buffered saline (PBS) and 10 μl red blood cells. The final peptide concentrations ranged from 100 to 0.1 μM in two-fold serial dilutions. After one hour of incubation at 37°C in a shaker, the plate was centrifuged at 200 g for 5 min and the supernatants (60 μl) were carefully transferred to a new flat-bottomed polycarbonate microtiter plate (Nagle Nunc) and absorbance at 550 nm was measured on a Synergy H1 multimode reader (BioTek, VT, USA). Cell suspension added 0.05% Triton X-100 (Sigma-Aldrich, MO, USA) in PBS served as positive (100% haemolysis) control and cell suspension added PBS served as negative (0% haemolysis) control. The percent haemolysis was calculated using the formula [(Asample-Abaseline)/(Atriton-Abaseline)]×100. The experiment was performed in duplicates.

Cladosporium sp. = conditions: for MIC Cladosporium sp.: 24 h
Procedure: (§5) The synthetic peptides (see section 2.11) were also screened for antifungal activity against Candida albicans (ATCC 10231), Saccharomyces cerevisiae, Rhodotorula sp., Aureobasidium pullulans and Cladosporium sp. The antifungal assay was performed as described previously. Briefly, fungal spores were dissolved in potato dextrose broth (Difco, Lawrence, KS, USA) to a concentration of 4 × 10^5 spores/ml. The spores (50 μl) were inoculated on 96-well Nunclon^TM microtiter plates containing the synthetic peptides (50 μl) dissolved in MQ-H2O. […] MIC was defined as the lowest concentration of peptide giving no visible fungal growth. The negative (growth) control contained medium and fungal solution.
as §4

Rhodotorula sp. = conditions: for MIC Rhodotorula sp.: potato dextrose broth, 24 h at room temperature, visual, no visible fungal growth, value of Table 2, triplicates
Procedure: as §5, §4

[5] = tested on: Candida albicans (ATCC 10231); conditions: for MIC C. albicans: ATCC 10231, 24 h
Procedure: as §5, §4

Aureobasidium pullulans = conditions: for MIC A. pullulans: 24 h
Procedure: as §5, §4

Saccharomyces cerevisiae = conditions: for MIC S. cerevisiae: 24 h
Procedure: as §5, §4

[6] = tested on: S. epidermidis #2, RP62A (ATCC 35984); conditions: for MIC S. epidermidis #2: ATCC 35984, 24 h
From the text: as §1, §2, §3, §4

[7] = tested on: P. aeruginosa #2, PA 01 (ATCC 15692, DSM 19880); conditions: for MIC P. aeruginosa #2: ATCC 15692, 24 h
From the text: as §1, §2, §3, §4

[8] = tested on: E. coli #2, NR 698 (MC4100/ptD4213); conditions: for MIC E. coli #2: MH medium, 24 h at 35°C, OD595, >90% inhibition, value of Table 2, triplicates
From the text: as §1, §2, §3, §4

[9] = tested on: Bacillus subtilis (ATCC 23857)
From the text: as §1, §2, §3, §4

[10] = tested on: S. epidermidis #1 (5179-R1); conditions: for MIC S. epidermidis #1: #1 (5179-R1, 24 h)
From the text: as §1, §2, §3, §4

[11] = tested on: Gram-positive and Gram-negative bacteria (tested strains); conditions: 24 h
From the text: as §1, with “(MC4100/ptD4213). […]” for “(MC4100/ptD4213).”
The test plates were incubated for 24 h at 35°C with optical density (OD595) recorded every hour using an Envision 2103 multilabel reader, controlled by the Wallac Envision manager (PerkinElmer, CT, USA). […]
ACN-phases and SPE eluates were tested with two-fold serial dilutions ranging from 5.0 to 0.005 mg/ml (5.0, 2.5, 1.25, 0.63, 0.31, 0.16, 0.08, 0.04, 0.02, 0.01, 0.005 mg/ml) whereas HPLC-fractions were tested undiluted for antibacterial activity. […] Antimicrobial assays involving natural peptides (i.e. fractionated natural material) were run only once due to limited quantities, whereas all other assays were run in triplicates.

[12] = MH medium, 24 h at 35°C, OD595, >90% inhibition, value of Table 2, native peptides run once, synthetic in triplicates
[13] = MH medium, 24 h at 35°C, OD595, lowest concentration with >90% inhibition, value of Table 2, native peptides run once, synthetic in triplicates

I: G[Trp(6-Br)][Trp(6-Br)]RRTVDKVRNAGRKVAGFASKACGALGH-OH / II: DIGKYCGYAHALN-NH2 (disulfide I:25-II:6) [EeCentrocin 1]
0.78 µM: MIC C. glutamicum ([2]; ATCC 13032, 24 h) | MIC P. aeruginosa #1 ([3]; ATCC 27853, 24 h) | MIC S. aureus ([4]; ATCC 9144, 24 h)
0.1 µM: MIC E. coli #1 ([1]; ATCC 25922, 24 h)

Triton X-100 [Lysis (0.05% Triton X-100), reference compound]
0.24: Absorbance at 550nm, lysis control (human red blood cells)

GWWRRTVDKVRNAGRKVAGFASKACGALGH [EeCentrocin 1 HC]
100 µM: MIC C. albicans [5] | MIC raw data C. albicans ([5]; parallel 1 of three) | MIC raw data C. albicans ([5]; parallel 2 of three) | MIC raw data C. albicans ([5]; parallel 3 of three)
0.39 µM: MIC C. glutamicum ([2]; ATCC 13032, 24 h) | MIC raw data C. glutamicum ([2]; parallel 1 of three) | MIC raw data C. glutamicum ([2]; parallel 2 of three) | MIC raw data C. glutamicum ([2]; parallel 3 of three)
0.39 to 6.25 µM: MIC range towards bacteria [11]
>100 µM: MIC Cladosporium sp. (Cladosporium sp.) | MIC raw data Cladosporium sp. (Cladosporium sp.; parallel 1 of three) | MIC raw data Cladosporium sp. (Cladosporium sp.; parallel 2 of three) | MIC raw data Cladosporium sp. (Cladosporium sp.; parallel 3 of three)
0.78 µM: MIC E. coli #1 ([1]; ATCC 25922, 24 h) | MIC raw data E. coli #1 ([1]; parallel 1 of three) | MIC raw data E. coli #1 ([1]; parallel 2 of three) | MIC raw data E. coli #1 ([1]; parallel 3 of three) | MIC raw data B. subtilis ([9]; parallel 3 of three)
1.56 µM: MIC P. aeruginosa #1 [3, 12] | MIC raw data P. aeruginosa #1 ([3]; parallel 1 of three) | MIC raw data P. aeruginosa #1 ([3]; parallel 2 of three) | MIC raw data P. aeruginosa #1 ([3]; parallel 3 of three) | MIC E. coli #2 [8] | MIC raw data E. coli #2 ([8]; parallel 1 of three) | MIC raw data E. coli #2 ([8]; parallel 2 of three) | MIC raw data E. coli #2 ([8]; parallel 3 of three) | MIC B. subtilis ([9]; MH medium, 24 h at 35°C, OD595, lowest concentration with >90% inhibition, value of Table 2, synthetic peptides in triplicates) | MIC raw data B. subtilis ([9]; parallel 1 of three) | MIC raw data B. subtilis ([9]; parallel 2 of three)
50 µM: MIC S. cerevisiae (Saccharomyces cerevisiae) | MIC raw data S. cerevisiae (Saccharomyces cerevisiae; parallel 1 of three) | MIC raw data S. cerevisiae (Saccharomyces cerevisiae; parallel 2 of three) | MIC raw data S. cerevisiae (Saccharomyces cerevisiae; parallel 3 of three)
12.5 µM: MIC raw data Rhodotorula sp. (Rhodotorula sp.; parallel 1 of three) | MIC raw data Rhodotorula sp. (Rhodotorula sp.; parallel 2 of three) | MIC raw data Rhodotorula sp. (Rhodotorula sp.; parallel 3 of three) | MIC Rhodotorula sp. (Rhodotorula sp.) | MIC A. pullulans (Aureobasidium pullulans) | MIC raw data A. pullulans (Aureobasidium pullulans; parallel 1 of three) | MIC raw data A. pullulans (Aureobasidium pullulans; parallel 2 of three) | MIC raw data A. pullulans (Aureobasidium pullulans; parallel 3 of three)
6.25 µM: MIC S. epidermidis #1 [10] | MIC raw data S. epidermidis #1 ([10]; parallel 1 of three) | MIC raw data S. epidermidis #1 ([10]; parallel 2 of three) | MIC raw data S. epidermidis #1 ([10]; parallel 3 of three)
3.13 µM: MIC S. epidermidis #2 [6] | MIC raw data S. epidermidis #2 ([6]; parallel 1 of three) | MIC raw data S. epidermidis #2 ([6]; parallel 2 of three) | MIC raw data S. epidermidis #2 ([6]; parallel 3 of three) | MIC P. aeruginosa #2 [7] | MIC raw data P. aeruginosa #2 ([7]; parallel 1 of three) | MIC raw data P. aeruginosa #2 ([7]; parallel 2 of three) | MIC raw data P. aeruginosa #2 ([7]; parallel 3 of three) | MIC S. aureus ([4]; ATCC 9144, 24 h) | MIC raw data S. aureus ([4]; parallel 1 of three) | MIC raw data S. aureus ([4]; parallel 2 of three) | MIC raw data S. aureus ([4]; parallel 3 of three)

XNPFKKIAHRXCYPKNE (bicyclic or more) [EeStrongylocin 2, cysteine-rich antimicrobial peptide from E. esculentus with 3 disulphide bonds and a 6-Br-Trp]
3.13 µM: MIC S. aureus [4, 13]
0.78 µM: MIC E. coli #1 [1, 12]
1.56 µM: MIC C. glutamicum [2, 13] | MIC P. aeruginosa #1 [3, 12]

CC[C@H](C)[C@H](NC(=O)[C@@H](N)CC(=O)O)C(=O)NCC(=O)N[C@@H](CCCCN)C(=O)N[C@@H](Cc1ccc(O)cc1)C(=O)N[C@@H](CS)C(=O)NCC(=O)N[C@@H](Cc1ccc(O)cc1)C(=O)N[C@@H](C)C(=O)N[C@@H](Cc1c[nH]cn1)C(=O)N[C@@H](C)C(=O)N[C@@H](CC(C)C)C(=O)N[C@@H](CC(N)=O)C(=O)O (stereo in doubt) [EeCentrocin 1 LC]
>100 µM: MIC Cladosporium sp. (Cladosporium sp.) | MIC Rhodotorula sp. (Rhodotorula sp.) | MIC C. albicans [5] | MIC A. pullulans (Aureobasidium pullulans) | MIC S. cerevisiae (Saccharomyces cerevisiae) | MIC E. coli #1 ([1]; ATCC 25922, 24 h) | MIC C. glutamicum ([2]; ATCC 13032, 24 h) | MIC S. epidermidis #2 [6] | MIC P. aeruginosa #1 ([3]; ATCC 27853, 24 h) | MIC P. aeruginosa #2 [7] | MIC E. coli #2 [8] | MIC B. subtilis ([9]; ATCC 23857, 24 h) | MIC S. aureus ([4]; ATCC 9144, 24 h) | MIC S. epidermidis #1 [10]
